Article PMC9645260, “Small-molecule inhibitors of P-Rex guanine-nucleotide exchange factors” (Small GTPases, 2022)

Target: T1, DOCK10 (DHR2) (Homo sapiens, UniProt Q96BY6)
T1 construct: The DOCK10 DHR2 domain, produced in and purified from bacteria; host or cells: bacteria
T1 sequence (Q96BY6 1690-2150 limits assumed): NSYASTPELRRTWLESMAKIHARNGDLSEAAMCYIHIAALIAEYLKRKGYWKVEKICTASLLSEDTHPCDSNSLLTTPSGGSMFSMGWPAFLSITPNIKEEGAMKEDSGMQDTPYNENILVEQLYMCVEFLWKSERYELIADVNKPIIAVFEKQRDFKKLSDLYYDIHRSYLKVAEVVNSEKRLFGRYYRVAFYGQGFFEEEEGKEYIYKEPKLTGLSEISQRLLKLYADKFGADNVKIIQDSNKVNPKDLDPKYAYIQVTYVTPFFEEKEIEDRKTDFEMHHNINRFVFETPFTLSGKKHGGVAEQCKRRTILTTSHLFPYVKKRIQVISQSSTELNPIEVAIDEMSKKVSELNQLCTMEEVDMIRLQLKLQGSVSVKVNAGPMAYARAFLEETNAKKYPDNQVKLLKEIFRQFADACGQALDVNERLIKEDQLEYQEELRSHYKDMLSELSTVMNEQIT
Assay: Liposome-based GEF activity assay, DOCK10
Assay type: biochemical
Settings: 10 µM, 765 nM DOCK10 DHR2
Description: Full-length N-terminally EE-tagged P-Rex1, P-Rex2, the P-Rex1 DH and DHPH domains and the P-Rex2 DH domain were produced in Sf9 cells using baculoviral transduction and were purified using anti-EE beads, as previously described. Briefly, frozen pellets from 500 ml of Sf9 culture infected with P-Rex expressing high-titre baculovirus were resuspended in ice-cold lysis Sf9-cell lysis buffer 2 (1x PBS, 1% Triton X-100, 5 mM EGTA, 1 mM EDTA, 25 mM NaF, 20 mM β-glycerophosphate, 1 mM DTT, 100 µM PMSF, 10 μg/ml each of leupeptin, pepstatin A, aprotinin and antipain) for 5 min and then ultracentrifuged at 118,000 × g for 1 h at 4°C. Supernatants were incubated with pre-washed anti-EE beads for 90 min on ice with end-over-end rotation. […] Protein concentration and purity were determined by coomassie staining of SDS-PAGE gels. […]
Liposome-based GEF activity assays were carried out essentially as described, except that GEFs were incubated with inhibitor compounds prior to the assay. […] Small GTPases were isolated using anti-EE antibody-coupled Sepharose beads or glutathione Sepharose beads, as appropriate, by incubation on ice for 90 min with end-over-end rotation, four washes in ice-cold wash buffer and resuspension of beads in Ultima Gold scintillation fluid (Perkin Elmer). ^35S-GTPγS incorporation was assessed by scintillation counting (Packard 1600TR, Liquid Scintillation Analyser).

With COc1ccc(-c2[nH]nc3c2C(c2ccc(-c4ccc(Cl)cc4)o2)C(C#N)=C(N)O3)cc1 (stereo not shown) [PREX-in1, 6-amino-4-[5-(4-chlorophenyl)-2-furyl]-3-(4-methoxyphenyl)-2,4-dihydropyrano[2,3-c]pyrazole-5-carbonitrile] the “effect on GEF activity of DOCK10” value was “none of the other GEFs were affected”.
